In the NIST ThermoML archive (doi:10.1016/j.jct.2013.11.027):

Key:
[1] = xn = mol fraction of the nth substance listed; conditions: 101 kPa, Liquid; for speed of sound: Sing-around technique in a fixed-path interferometer; for mass density: Vibrating tube method
[2] = refractive index (Na D-line) (dimensionless); xn = mol fraction of the nth substance listed; conditions: 101 kPa, Liquid, Standard Abbe refractometry

CCCCCCCC[n+]1ccn(C)c1.F[B-](F)(F)F [1-methyl-3-octylimidazolium tetrafluoroborate] + C1COCCO1
Conditions | mass density, 298.15 K [kg/m3] | mass density, 308.15 K [kg/m3] | mass density, 318.15 K [kg/m3] | refractive index, 298.15 K | refractive index, 308.15 K | refractive index, 318.15 K | speed of sound, 298.15 K [m/s] | speed of sound, 308.15 K [m/s] | speed of sound, 318.15 K [m/s]
[1], x1 = 0.0859 | 1049.95 | 1040.08 | 1030.18 | – | – | – | 1380.8 | 1341.1 | 1301.8
[1], x1 = 0.192 | 1064.93 | 1055.92 | 1047.49 | – | – | – | 1414.2 | 1378.1 | 1343.1
[1], x1 = 0.2914 | 1074.44 | 1066.14 | 1057.87 | – | – | – | 1436.8 | 1403.6 | 1370.9
[1], x1 = 0.3963 | 1080.96 | 1073.08 | 1065.23 | – | – | – | 1451.6 | 1420.6 | 1390
[1], x1 = 0.4955 | 1085.46 | 1077.85 | 1070.11 | – | – | – | 1460.4 | 1430.9 | 1401.8
[1], x1 = 0.5947 | 1088.93 | 1081.57 | 1074.25 | – | – | – | 1466.5 | 1438 | 1410.1
[1], x1 = 0.69 | 1091.4 | 1084.18 | 1076.98 | – | – | – | 1469 | 1440.8 | 1414.8
[1], x1 = 0.7938 | 1093.66 | 1086.61 | 1079.53 | – | – | – | 1475.1 | 1447.9 | 1421.7
[1], x1 = 0.8893 | 1095.2 | 1088.29 | 1081.42 | – | – | – | 1477.8 | 1450.9 | 1425.1
[1], x1 = 1 | 1097.61 | 1090.9 | 1084.17 | – | – | – | 1481.1 | 1453.9 | 1428.2
[2], x1 = 0.0859 | – | – | – | 1.42308 | 1.41854 | 1.41465 | – | – | –
[2], x1 = 0.192 | – | – | – | 1.42601 | 1.42173 | 1.41833 | – | – | –
[2], x1 = 0.2914 | – | – | – | 1.42812 | 1.42412 | 1.42107 | – | – | –
[2], x1 = 0.3963 | – | – | – | 1.42935 | 1.42549 | 1.42264 | – | – | –
[2], x1 = 0.4955 | – | – | – | 1.43039 | 1.42664 | 1.42387 | – | – | –
[2], x1 = 0.5947 | – | – | – | 1.43124 | 1.42746 | 1.42483 | – | – | –
[2], x1 = 0.69 | – | – | – | 1.43181 | 1.42809 | 1.42548 | – | – | –
[2], x1 = 0.7938 | – | – | – | 1.43221 | 1.42865 | 1.42605 | – | – | –
[2], x1 = 0.8893 | – | – | – | 1.43262 | 1.42907 | 1.42628 | – | – | –
[2], x1 = 1 | – | – | – | 1.43296 | 1.42939 | 1.42684 | – | – | –

CCCCCCn1cc[n+](C)c1.F[B-](F)(F)F [1-hexyl-3-methylimidazolium tetrafluoroborate] + C1COCCO1
Conditions | mass density, 298.15 K [kg/m3] | mass density, 308.15 K [kg/m3] | mass density, 318.15 K [kg/m3] | refractive index, 298.15 K | refractive index, 308.15 K | refractive index, 318.15 K | speed of sound, 298.15 K [m/s] | speed of sound, 308.15 K [m/s] | speed of sound, 318.15 K [m/s]
[1], x1 = 0.0956 | 1060.24 | 1050.11 | 1040.21 | – | – | – | 1373.3 | 1332.3 | 1291
[1], x1 = 0.2039 | 1084.24 | 1074.91 | 1065.52 | – | – | – | 1403 | 1364.1 | 1324.8
[1], x1 = 0.2945 | 1098.98 | 1089.94 | 1081.15 | – | – | – | 1422 | 1384.1 | 1346.8
[1], x1 = 0.368 | 1107.75 | 1099.02 | 1090.42 | – | – | – | 1434 | 1398.1 | 1362.7
[1], x1 = 0.4876 | 1119.03 | 1110.69 | 1102.5 | – | – | – | 1450.5 | 1417.6 | 1384.3
[1], x1 = 0.5831 | 1125.92 | 1118.09 | 1110.2 | – | – | – | 1461 | 1430.1 | 1398.7
[1], x1 = 0.6816 | 1131.92 | 1124.09 | 1116.5 | – | – | – | 1470.5 | 1441.5 | 1412.2
[1], x1 = 0.7695 | 1136.19 | 1128.65 | 1121.26 | – | – | – | 1478.1 | 1450.5 | 1423.2
[1], x1 = 0.8594 | 1140.02 | 1132.69 | 1125.9 | – | – | – | 1485.9 | 1459.7 | 1433.3
[1], x1 = 1 | 1145.11 | 1137.71 | 1130.49 | – | – | – | 1496.7 | 1472 | 1447.7
[2], x1 = 0.0956 | – | – | – | 1.4241 | 1.42009 | 1.41587 | – | – | –
[2], x1 = 0.2039 | – | – | – | 1.42717 | 1.42329 | 1.41958 | – | – | –
[2], x1 = 0.2945 | – | – | – | 1.42874 | 1.42525 | 1.42174 | – | – | –
[2], x1 = 0.368 | – | – | – | 1.42944 | 1.42625 | 1.42294 | – | – | –
[2], x1 = 0.4876 | – | – | – | 1.43034 | 1.42727 | 1.42429 | – | – | –
[2], x1 = 0.5831 | – | – | – | 1.43075 | 1.42802 | 1.42519 | – | – | –
[2], x1 = 0.6816 | – | – | – | 1.43106 | 1.42839 | 1.42546 | – | – | –
[2], x1 = 0.7695 | – | – | – | 1.43149 | 1.42861 | 1.42574 | – | – | –
[2], x1 = 0.8594 | – | – | – | 1.43152 | 1.42868 | 1.42604 | – | – | –
[2], x1 = 1 | – | – | – | 1.43167 | 1.4289 | 1.42612 | – | – | –
